Laboratory results taken from article PMC7802075 (ACS Infectious Diseases, 2020).
Where a name gives a salt, the structure may show the parent alone. Where a SMILES comes first, the peptide text is derived from it.

Each compound was assayed against T1, LmjIPCS (inositol phosphorylceramide synthase from L. major) (Leishmania major, UniProt E9AFX2) (assay: biochemical). Details: not given.
T1 sequence (E9AFX2 1-338): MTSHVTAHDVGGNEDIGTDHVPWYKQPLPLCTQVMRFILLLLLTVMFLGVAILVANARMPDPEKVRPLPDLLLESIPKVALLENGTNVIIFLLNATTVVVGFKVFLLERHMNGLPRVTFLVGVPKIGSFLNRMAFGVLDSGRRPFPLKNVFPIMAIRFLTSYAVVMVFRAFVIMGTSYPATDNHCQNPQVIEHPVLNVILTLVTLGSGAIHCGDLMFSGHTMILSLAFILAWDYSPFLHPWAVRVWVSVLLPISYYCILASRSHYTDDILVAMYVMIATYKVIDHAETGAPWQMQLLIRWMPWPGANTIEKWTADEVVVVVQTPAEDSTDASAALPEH
Format: biochemical
Set-up: inhibition: dose or concentration left out as unconfirmed

Row | Compound | 20mM inhibition LmjIPCS [%]
1 | C[C@@H]1[C@H](O)[C@@H](C)/C=C/C=C/CC/C=C/C=C/C=C/C=C/C(O[C@H]2O[C@H](C)[C@@H](O)[C@H](N)[C@@H]2O)CC2O[C@](O)(CC(O)C(O)CCC(O)CC(O)CC(O)CC(=O)O[C@H]1C)CC(O)C2C(=O)O (stereo partly drawn) [NYSTATIN] | 32
2 | NS(=O)(=O)c1cc2c(cc1Cl)N=CNS2(=O)=O [CHLOROTHIAZIDE] | 51
3 | NC(=O)N1c2ccccc2C=Cc2ccccc21 [CARBAMAZEPINE] | 50
4 | DEGUELIN(-) | 51
5 | C[C@H](CCC(=O)[O-])[C@H]1CC[C@H]2[C@@H]3C(=O)C[C@@H]4CC(=O)CC[C@]4(C)[C@H]3CC(=O)[C@]12C.[Na+] [SODIUM DEHYDROCHOLATE] | -6.4
6 | CN1[C@@H](CC(=O)c2ccccc2)CCC[C@H]1C[C@H](O)c1ccccc1 [LOBELINE] | 38
7 | O=C(O)c1cc(O)c2c(c1)[C@H]([C@H]1c3cc(C(=O)O)cc(O)c3C(=O)c3c(O[C@@H]4O[C@H](CO)[C@@H](O)[C@H](O)[C@H]4O)cccc31)c1cccc(O[C@@H]3O[C@H](CO)[C@@H](O)[C@H](O)[C@H]3O)c1C2=O [SENNOSIDE A] | 62
8 | O=C1CCO1 [BETA-PROPIOLACTONE] | 1.45
9 | Cc1cc2c(C(C)C)c(O)c(O)c(C=O)c2c(O)c1-c1c(C)cc2c(C(C)C)c(O)c(O)c(C=O)c2c1O [GOSSYPOL] | 37
10 | NS(=O)(=O)c1cc(C2(O)NC(=O)c3ccccc32)ccc1Cl (stereo not drawn) [CHLORTHALIDONE] | 42
11 | CRESOL | 53
12 | O=C(O)CC[N+](=O)[O-] [BOVINOCIDIN] | 21
13 | c1ccc(-c2ccc(C(c3ccccc3)n3ccnc3)cc2)cc1 (stereo not drawn) [BIFONAZOLE] | 52
14 | C[N+]12CCC(CC1)C(OC(=O)C(O)(c1ccccc1)c1ccccc1)C2 (stereo not drawn) [CLIDINIUM BROMIDE] | 54
15 | O=C(O)c1cc([N+](=O)[O-])ccc1NCCCc1ccccc1 [5-NITRO-2-PHENYLPROPYLAMINOBENZOIC ACID] | 15
16 | CCN(CCCCOC(=O)c1ccc(OC)c(OC)c1)C(C)Cc1ccc(OC)cc1 (stereo not drawn) [MEBEVERINE] | 54

Same assay, conditions: NINDS set screen, compound at 20mM (so in the source)

Row | 20mM inhibition LmjIPCS [%] | Compound
17 | 18 | C[C@]12CCC(=O)C=C1CC[C@@H]1[C@@H]2[C@@H](O)C[C@@]2(C)[C@H]1CC[C@]2(O)C(=O)COC(=O)CCC(=O)O [HYDROCORTISONE HEMISUCCINATE]
18 | 23 | Cc1c(OCC(F)(F)F)ccnc1C[S+]([O-])c1nc2ccccc2[nH]1 (stereo not drawn) [LANSOPRAZOLE]

Same assay, conditions: NINDS set screen, single concentration printed as 20mM

Row | 20mM inhibition LmjIPCS [%] | Compound
19 | 68 | CC(=O)Oc1ccc2c(c1)CC[C@@H]1[C@@H]2CC[C@]2(C)[C@@H](O)CC[C@@H]12 [ESTRADIOL ACETATE]
20 | 36 | Nc1nc(N)c2nc(-c3ccccc3)c(N)nc2n1
21 | 36 | CCCC(C(=O)OCCN(CC)CC)(c1ccccc1)c1ccccc1 [PROADIFEN]
22 | 37 | c1ccc2c(Cc3c[nH]c4ccccc34)c[nH]c2c1 [3,3'-DIINDOLYLMETHANE]
23 | 35 | CC(C)[N+](C)(CCOC(=O)C1c2ccccc2Oc2ccccc21)C(C)C [PROPANTHELINE BROMIDE]
24 | 55 | CC[C@]12CCCN3CCc4c(n(c5ccccc45)C(=O)C1)[C@@H]32 [VINBURNINE]
25 | 47 | NC(Cc1c[nH]cn1)C(=O)Nc1ccc2ccccc2c1 (stereo not drawn)

Row | Compound | 20mM inhibition LmjIPCS [%]
26 | N[C@@H]1C[C@H]1c1ccccc1 (racemic) [TRANYLCYPROMINE] | 49

Same assay, conditions: NINDS set screen; read-out: inhibition LmjIPCS

Row | inhibition [%] | Compound
27 | 33 | NCC(O)c1ccc(O)cc1 (stereo not drawn) [OCTOPAMINE HYDROCHLORIDE]
28 | 16 | CC1(C)O[C@@H]2[C@@H](CO[C@@]3(COS(N)(=O)=O)OC(C)(C)O[C@@H]23)O1 [TOPIRAMATE]
29 | 13 | CCCN(CCC)S(=O)(=O)c1ccc(C(=O)O)cc1 [PROBENECID]
30 | 0.104 | Nc1ccc(S(=O)(=O)Nc2ccnn2-c2ccccc2)cc1 [SULFAPHENAZOLE]
31 | 19 | CC[C@H]1OC(=O)[C@H](C)[C@@H](O[C@H]2C[C@@](C)(OC)[C@@H](O)[C@H](C)O2)[C@H](C)[C@@H](O[C@@H]2O[C@H](C)C[C@H](N(C)C)[C@H]2O)[C@](C)(O)C[C@@H](C)CN(C)[C@H](C)[C@@H](O)[C@]1(C)O [AZITHROMYCIN]

Same assay, conditions: read-out: 20mM inhibition LmjIPCS

Row | Compound | inhibition at 20000 µM [%]
32 | NC12CC3CC(CC(C3)C1)C2 [AMANTADINE] | 30
33 | OCCN1C[C@H](O)[C@@H](O)[C@H](O)[C@H]1CO [MIGLITOL] | -0.821
34 | O=C(O)CCC(=O)c1ccc(-c2ccccc2)cc1 [FENBUFEN] | 12
35 | CC1(C)O[C@@H]2C[C@H]3[C@@H]4CCC5=CC(=O)CC[C@]5(C)[C@@]4(F)[C@@H](O)C[C@]3(C)[C@]2(C(=O)CCl)O1 [HALCINONIDE] | 20
36 | O=C(O)c1ccccc1Nc1cccc(C(F)(F)F)c1 [FLUFENAMIC ACID] | -16
37 | Nc1ccc(S(=O)(=O)Nc2ccccn2)cc1 [SULFAPYRIDINE] | -1.38
38 | Sc1nc2ccccc2s1 [2-MERCAPTOBENZOTHIAZOLE] | 24
39 | CC(=O)N[C@@H](CC(=O)N[C@@H](CCC(=O)O)C(=O)O)C(=O)O [SPAGLUMIC ACID] | 1.82
40 | C/C=C(\C)C(=O)O[C@H]1C[C@@H](OC(C)=O)[C@@]2(C(=O)OC)CO[C@H]3[C@@H](O)[C@@](C)([C@]45O[C@@]4(C)[C@H]4C[C@@H]5O[C@@H]5OC=C[C@@]54O)[C@H]4[C@]1(CO[C@]4(O)C(=O)OC)[C@@H]32 [AZADIRACHTIN] | 3.53
41 | O=C(OCC(O)CO)c1ccccc1Nc1ccnc2cc(Cl)ccc12 (stereo not drawn) [GLAFENINE] | -16
42 | C#C[C@]1(O)CC[C@H]2[C@@H]3CCC4=C(CCC(=O)C4)[C@H]3CC[C@@]21C [NORETHYNODREL] | 21
43 | N#C[C@H](O[C@@H]1O[C@H](CO[C@@H]2O[C@H](CO)[C@@H](O)[C@H](O)[C@H]2O)[C@@H](O)[C@H](O)[C@H]1O)c1ccccc1 [AMYGDALIN] | -4
44 | C1CCc2nnnn2CC1 [PENTETRAZOL] | 16
45 | CCOC(=O)[C@H](CCc1ccccc1)N[C@@H](C)C(=O)N1Cc2ccccc2C[C@H]1C(=O)O | 5.45
46 | C/C=C(/C(=C/C)c1ccc(O)cc1)c1ccc(O)cc1 [DIENESTROL] | -4
47 | CN1[C@@H]2CC[C@H]1C[C@@H](OC(=O)C(CO)c1ccccc1)C2 (stereo partly drawn) [ATROPINE] | 26
48 | COc1cc([C@@H]2c3cc4c(cc3[C@H](O)[C@H]3COC(=O)[C@@H]23)OCO4)cc(OC)c1OC [PICROPODOPHYLLOTOXIN] | 7.47
49 | C/C=C1\[C@H]2C=C(C)C[C@]1(N)c1ccc(=O)[nH]c1C2 [HUPERZINE A] | 24
50 | Cc1ccc(S(=O)(=O)NC(=O)NN2CC3CCCC3C2)cc1 (stereo not drawn) [GLICLAZIDE] | 14
51 | CC(=O)OCC(CCn1cnc2cnc(N)nc21)COC(C)=O [FAMCICLOVIR] | 1.36
52 | O=C(CCCCC(=O)Nc1c(I)cc(I)c(C(=O)O)c1I)Nc1c(I)cc(I)c(C(=O)O)c1I [IODIPAMIDE] | 7
53 | CC(C(=O)O)c1ccc(C(=O)c2cccs2)cc1 (stereo not drawn) [SUPROFEN] | 5
54 | O=C1C=C2C(=CCOC2O)O1 (stereo not drawn) [PATULIN] | 0.294
55 | CC(=O)OCC(=O)[C@@]12OC3(CCCC3)O[C@@H]1C[C@H]1[C@@H]3CCC4=CC(=O)C=C[C@]4(C)[C@@]3(F)[C@@H](O)C[C@@]12C [AMCINONIDE] | 11
56 | CC(COc1ccccc1)NC(C)C(O)c1ccc(O)cc1 (stereo not drawn) [ISOXSUPRINE] | 32
57 | CO[C@@H]1C[C@@H](C[C@H]2CC[C@H](C)[C@H]([C@@H](C)C(=O)O)O2)O[C@]2(O[C@](C)([C@H]3CC[C@@](C)([C@@H]4O[C@@H]([C@H]5O[C@@](O)(CO)[C@H](C)C[C@@H]5C)C[C@@H]4C)O3)C[C@H]2C)[C@@H]1C [NIGERICIN] | -7.41

Same assay, conditions: read-out: inhibition LmjIPCS

Row | inhibition [%] | Compound
58 | 6 | NC(=O)CN1CCCC1=O
59 | 13 | CCc1cccc2c3c([nH]c12)C(CC)(CC(=O)O)OCC3 (stereo not drawn) [ETODOLAC]
60 | -1.19 | CC[C@@H](CO)NCCN[C@@H](CC)CO [ETHAMBUTOL]
61 | -3 | O=c1oc2ccccc2c(O)c1Cc1c(O)c2ccccc2oc1=O [DICUMAROL]
62 | 28 | NCC(=O)CCC(=O)O [AMINOLEVULINIC ACID]
63 | 0.579 | O=C(O)c1cc(=O)c2c(OCC(O)COc3cccc4oc(C(=O)O)cc(=O)c34)cccc2o1 [CROMOLYN]
64 | 5.6 | O=C(O)CCc1nc(-c2ccccc2)c(-c2ccccc2)o1 [OXAPROZIN]
65 | 22 | O=c1cc(-c2ccccc2)oc2cc(O)cc(O)c12 [CHRYSIN]
66 | 10 | CC(C)N(CCC(C(N)=O)(c1ccccc1)c1ccccn1)C(C)C (stereo not drawn) [DISOPYRAMIDE]

Same assay, conditions: screening of NINDS set, sheet Screen 1; read-out: inhibition LmjIPCS

Row | inhibition [%] | Compound
67 | 7 | Cc1nc(C)c(Cl)c(O)c1Cl [CLOPIDOL]
68 | 5.71 | CC[C@H]1OC(=O)[C@H](C)[C@@H](O[C@H]2C[C@@](C)(OC)[C@@H](O)[C@H](C)O2)[C@H](C)[C@@H](O[C@@H]2O[C@H](C)C[C@H](N(C)C)[C@H]2O)[C@](C)(OC)C[C@@H](C)C(=O)[C@H](C)[C@@H](O)[C@]1(C)O [CLARITHROMYCIN]
69 | 2.18 | COc1cc(OC)c2ccc(=O)oc2c1 [CITROPTEN]
70 | 6.34 | NCCSSCCN [CYSTAMINE]
71 | 10 | COC(=O)[C@H](Cc1ccccc1)NC(=O)[C@@H](N)CC(=O)O (H-Asp-Phe-OMe)

Row | Compound | inhibition [%]
72 | CC(=O)Oc1ccc2c(c1)CCC1C2CC[C@]2(C)C(=O)CCC12 (stereo partly drawn) [ESTRONE ACETATE] | 8.56
